# Data: ChEMBL document CHEMBL1641435, “DR396, an apoptotic DNase γ inhibitor, attenuates high mobility group box 1 release from apoptotic cells” (Bioorg Med Chem, 2011)
# pIC50: −log10 of the molar value. The source made the active and inactive calls. The calls are words filed in the database; no cut-off is given here.
# What was measured:
# HeLa S3 = assay: Inhibition of HMGB1 release in human staurosporine-induced HeLaS3 cells at 100 uM treated 1 hr before staurosporine challenge measured after 24 hrs by Western blotting; type: functional
# Deoxyribonuclease gamma [1] = target: T1, Deoxyribonuclease gamma (Homo sapiens, UniProt Q13609); assay: (§1) Inhibition of human recombinant DNase gamma expressed in Rosetta DE3 cells assessed as increase in acid soluble DNA after 30 mins; type: cell-based
# T1 sequence (Q13609 whole entry): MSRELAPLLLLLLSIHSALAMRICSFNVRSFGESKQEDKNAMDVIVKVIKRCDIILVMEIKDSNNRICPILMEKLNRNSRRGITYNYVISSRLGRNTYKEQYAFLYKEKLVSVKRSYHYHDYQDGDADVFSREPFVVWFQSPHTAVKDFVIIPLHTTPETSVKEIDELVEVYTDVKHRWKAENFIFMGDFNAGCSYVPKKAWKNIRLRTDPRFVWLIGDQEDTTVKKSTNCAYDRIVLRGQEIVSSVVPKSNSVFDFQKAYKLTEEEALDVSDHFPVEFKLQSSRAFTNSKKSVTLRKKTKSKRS
# [2] = target: T2, Deoxyribonuclease gamma (Homo sapiens) (UniProt Q13609); assay: as §1; type: cell-based
# T2 sequence (whole entry): T1 sequence (Q13609 whole entry)
# [3] = target: T2, Deoxyribonuclease gamma (Homo sapiens); settings: HeLa S3; 30 uM
# Description: Inhibition of DNase gamma-mediated nucleosomal DNA fragmentation expressed in human staurosporine-induced HeLaS3 cells at 30 uM treated 1 hr before staurosporine challenge measured after 24 hrs by Western blotting
# Deoxyribonuclease gamma [4] = target: T1, Deoxyribonuclease gamma; assay: Inhibition of DNase gamma-mediated HMGB1 release expressed in human staurosporine-induced HeLaS3 cells treated 1 hr before staurosporine challenge measured after 24 hrs by Western blotting
SMILES,inhibition at 100 µM (HeLa S3),pIC50 (Deoxyribonuclease gamma [1]),inhibition [2],inhibition (HeLa S3),inhibition [3],pIC50 (Deoxyribonuclease gamma [4])
O=C(N[C@H](CC1CCCCC1)C(=O)O)OCC1c2ccccc2-c2ccccc21,20%,4.46,Dose-dependent effect,,,
O=S(=O)(O)c1cc(O)c2c(O)c(/N=N/c3cccc4ccccc34)c(S(=O)(=O)O)cc2c1 [PONTACYL VIOLET 6R],50%,4.79,Dose-dependent effect,,,
O=C(O)c1ccc(Nc2nc(Cl)nc(Cl)n2)cc1-c1c2ccc(=O)cc-2oc2cc(O)ccc12,,5.49,Dose-dependent effect,Active,50%,4.52
